Test results: paper PMC9780888, “4-Isobutylmethcathinone—A Novel Synthetic Cathinone with High In Vitro Cytotoxicity and Strong Receptor Binding Preference of Enantiomers” (Pharmaceuticals, 2022)
Read-outs that look alike come from different tables or passages of the source.

System: 5637, SH-SY5Y, HMC-3, Hep G2, L929; HaCaT, CaCo-2, MRC-5, BJ cells
Experiment: WST-1 viability assay, summary ranges over groups of cell lines
Type: cell-based
Experimental: Based on the novelty of the IMBcat compound, we aimed to evaluate its in vitro cytotoxicity in selected model cell lines as well as to determine the toxicity of the IBMcat enantiomers, since both the chemical structure and chirality of compounds could play a role in their bioactivity (Table 2). The cytotoxic profile of the IBMcat was determined by a WST-1 viability assay after 72-h treatment. For this purpose, cell lines derived from distinct tissues, often affected by NPSs, were chosen, i.e., cells of kidney, hepatic, neural, urinary, and intestinal origin as well as keratinocytes and primary fibroblasts (HEK 293T, Hep G2, HMC-3, SH-SY5Y, 5637, CaCo-2, HaCaT, MRC-5, and BJ, respectively). […]
In this study, the following cell lines were used: HEK 293T, Hep G2, HMC-3, SH-SY5Y, 5637, CaCo-2, HaCaT, MRC-5, BJ, and L929. […] The selected cell lines were chosen so that not only primary noncancerous cells are evaluated but also cells derived from tissues, which are the most often affected by novel synthetic drugs, i.e., kidney, liver, urinary bladder, and nervous tissue. […]
The cytotoxicity of IBMCat was evaluated in vitro by using a WST-1 viability assay (Sigma-Aldrich, Saint Louis, MO, USA) based on the transformation of a tetrazolium salt into colored formazan in metabolically active cells. […] After 72 h of additional incubation of the cells, their viability was determined by WST-1. […]

## CNC(C)C(=O)c1ccc(CC(C)C)cc1.Cl (centres unmarked) [IBMcat, 4-isobutylmethcathinone hydrochloride]
5637, SH-SY5Y, HMC-3 and Hep G2 cells, after 72 h, read-out: IC50 values (range over cell lines)
  IC50: 18 to 65 µM
HaCaT, CaCo-2, MRC-5 and BJ cells, 72 h, racemate and enantiomers, read-out: IC50 (range over cell lines)
  IC50: 329 to 749 µM
